Source: US20150239889A1, “PYRAZOLOPYRIMIDINE COMPOUND” (MITSUBISHI TANABE PHARMA CORPORATION, priority 2012, published 2015)
pIC50: −log10 of the molar value. Structures can show the parent of a compound that is named as a salt.

Legend:
human HIF-PHD2 = biological target: T1, human HIF-PHD2 (Homo sapiens, UniProt Q9GZT9); assay: HIF-PHD inhibition assay (fluorescence polarization), human HIF-PHD2; type: biochemical; conditions: 2-oxoglutaric acid 3.33 μmol/L
T1 construct: purchased CrystalGenomics Ltd
Method in brief: (§1)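 Compounds tested for enzyme inhibition by fluorescence polarization. Subtracting the reading taken before enzyme addition from the post-addition reading gave activity in mP.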

human HIF-PHD3 = biological target: T2, human HIF-PHD3 (Homo sapiens, UniProt Q9H6Z9); assay: HIF-PHD inhibition assay (fluorescence polarization), human HIF-PHD3; type: biochemical; conditions: 2-oxoglutaric acid 166 μmol/L
T2 construct: purchased CrystalGenomics Ltd
Method in brief: as §1

T2 sequence (Q9H6Z9 whole entry): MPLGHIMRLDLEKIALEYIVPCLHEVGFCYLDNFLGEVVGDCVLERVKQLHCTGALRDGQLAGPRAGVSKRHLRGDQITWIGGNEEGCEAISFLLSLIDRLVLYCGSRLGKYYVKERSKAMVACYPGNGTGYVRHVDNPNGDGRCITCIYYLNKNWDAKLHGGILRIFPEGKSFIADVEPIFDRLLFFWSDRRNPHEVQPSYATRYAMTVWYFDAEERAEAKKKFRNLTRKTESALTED
T1 sequence (Q9GZT9 2-426 limits assumed): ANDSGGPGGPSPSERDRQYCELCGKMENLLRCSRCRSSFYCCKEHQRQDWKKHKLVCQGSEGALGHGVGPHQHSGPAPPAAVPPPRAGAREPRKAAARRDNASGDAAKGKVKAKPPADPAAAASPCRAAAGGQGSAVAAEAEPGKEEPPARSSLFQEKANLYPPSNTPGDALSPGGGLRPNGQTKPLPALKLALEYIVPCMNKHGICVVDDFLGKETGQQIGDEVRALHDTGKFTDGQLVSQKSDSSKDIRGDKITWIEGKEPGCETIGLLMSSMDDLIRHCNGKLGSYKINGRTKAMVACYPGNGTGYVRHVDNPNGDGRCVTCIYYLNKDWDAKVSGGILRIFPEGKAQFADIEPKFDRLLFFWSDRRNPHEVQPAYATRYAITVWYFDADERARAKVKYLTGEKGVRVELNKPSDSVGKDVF

Row | pIC50 (human HIF-PHD2) | pIC50 (human HIF-PHD3) | SMILES
1 | 7.96 | 5.85 | CC[C@H]1CC[C@H](Cn2nc(F)c3nc(-n4cc(C(=O)O)cn4)nc(O)c32)CC1 [Example 219]
2 | 7.55 | 6.55 | O=C(O)c1cnn(-c2nc(O)c3c(cnn3Cc3ccc(-c4ccc(Cl)cc4Cl)cc3)n2)c1 [Example 72]
3 | 7.55 | 6.18 | CC(C)[C@H]1CC[C@@H](n2ncc3nc(-n4cc(C(=O)O)cn4)nc(O)c32)CC1 [Example 390]
4 | 7.22 | 6.37 | Cc1ccc([C@H](C)n2nc(F)c3nc(-n4cc(C(=O)O)cn4)nc(O)c32)cc1C [Example 441]
5 | 7.66 | 6.34 | O=C(O)c1cnn(-c2nc(O)c3c(cnn3CCCOc3ccc4c(c3)CCC4)n2)c1 [Example 195]
6 | 7.39 | 6.51 | O=C(O)c1cnn(-c2nc(O)c3c(cnn3C3CCCCCC3)n2)c1 [Example 393]
7 | 7.08 | 5.96 | O=C(O)c1cnn(-c2nc(O)c3c(cnn3CC3CCN(Cc4ccc(F)cc4)CC3)n2)c1 [Example 2, 1-(1-{[1-(4-fluorobenzyl)piperidin-4-yl]methyl}-7-hydroxy-1H-pyrazolo[4,3-d]pyrimidin-5-yl)-1H-pyrazole-4-carboxylic acid hydrochloride]
8 | 7.55 | 7.11 | O=C(O)c1cnn(-c2nc(O)c3c(cnn3Cc3ccc(-c4ccccc4C4CC4)cc3)n2)c1 [Example 60]
9 | 7.21 | 6.12 | CC(C)C(c1cc(F)cc(F)c1)n1ncc2nc(-n3cc(C(=O)O)cn3)nc(O)c21 (single isomer, unassigned) [Example 361]
10 | 7.52 | 6.68 | C[C@@H](c1ccc2c(c1)CCC2)n1ncc2nc(-n3cc(C(=O)O)cn3)nc(O)c21 [Example 289]
11 | 7.27 | 6.23 | CC1CCCC(n2ncc3nc(-n4cc(C(=O)O)cn4)nc(O)c32)C1 (single isomer, unassigned) [Example 399]
12 | 7.96 | 6.72 | O=C(O)c1cnn(-c2nc(O)c3c(cnn3Cc3ccc(C4CC4)cc3)n2)c1 [Example 321]
13 | 6.82 | 6.05 | CC(C)C(C(C)C)n1ncc2nc(-n3cc(C(=O)O)cn3)nc(O)c21 [Example 489]
14 | 7.70 | 6.35 | C[C@@H](c1ccc(C(F)(F)F)c(F)c1)n1ncc2nc(-n3cc(C(=O)O)cn3)nc(O)c21 [Example 281]
15 | 7.15 | 6.32 | CC1(C)CCC(n2nc(F)c3nc(-n4cc(C(=O)O)cn4)nc(O)c32)CC1 [Example 481]
16 | 7.44 | 6.20 | CCC(c1ccc(F)cc1)n1ncc2nc(-n3cc(C(=O)O)cn3)nc(O)c21 (single isomer, unassigned) [Example 325]
17 | 7.55 | 6.38 | C[C@@H](C1CCN(c2cccc(C(F)(F)F)c2)CC1)n1ncc2nc(-n3cc(C(=O)O)cn3)nc(O)c21 [Example 434]
18 | 7.32 | 6.08 | Cc1ccc(F)cc1[C@H](C)n1ncc2nc(-n3cc(C(=O)O)cn3)nc(O)c21 [Example 287]
19 | 7.07 | 6.28 | Cc1cc(Cl)cc([C@H](C)n2ncc3nc(-n4cc(C(=O)O)cn4)nc(O)c32)c1 [Example 267]
20 | 7.70 | 7.14 | O=C(O)c1cnn(-c2nc(O)c3c(cnn3Cc3ccc(-c4ccc(Cl)cc4F)cc3)n2)c1 [Example 74]

Row | pIC50 (human HIF-PHD2) | pIC50 (human HIF-PHD3) | SMILES
21 | 7.72 | 6.62 | O=C(O)c1cnn(-c2nc(O)c3c(cnn3C[C@H]3CCN(c4cccc(Cl)c4)C3)n2)c1 [Example 430]
22 | 7.72 | 6.38 | CCC(c1ccc(F)c(F)c1)n1ncc2nc(-n3cc(C(=O)O)cn3)nc(O)c21 (single isomer, unassigned) [Example 331]
23 | 7.03 | 5.96 | CC(C)CC(CC(C)C)n1ncc2nc(-n3cc(C(=O)O)cn3)nc(O)c21 [Example 490]
24 | 7.29 | 6.20 | O=C(O)c1cnn(-c2nc(O)c3c(cnn3C(c3cccc(Cl)c3)C3CC3)n2)c1 (stereo not drawn) [Example 374]
25 | 7.47 | 6.57 | Cc1nn(CC2CCC(F)(F)CC2)c2c(O)nc(-n3cc(C(=O)O)cn3)nc12 [Example 475]
26 | 7.44 | 6.24 | CCC(c1ccc(F)c(F)c1)n1ncc2nc(-n3cc(C(=O)O)cn3)nc(O)c21 (stereo not drawn) [Example 330]
27 | 7.32 | 6.41 | CC1CCN(c2ccc(C(C)n3ncc4nc(-n5cc(C(=O)O)cn5)nc(O)c43)cc2)CC1 (racemic) [Example 425]
28 | 7.52 | 5.77 | C[C@H](C1CCCCC1)n1ncc2nc(-n3cc(C(=O)O)cn3)nc(O)c21 [Example 145]
29 | 6.92 | 5.66 | CC(C)n1ncc2nc(-n3cc(C(=O)O)cn3)nc(O)c21 [Example 486]
30 | 7.82 | 6.64 | CC(c1ccc(F)c(C(F)(F)F)c1)n1ncc2nc(-n3cc(C(=O)O)cn3)nc(O)c21 (single isomer, unassigned) [Example 304]
31 | 7.27 | 6.29 | CC(c1cc(Cl)cc(Cl)c1)n1ncc2nc(-n3cc(C(=O)O)cn3)nc(O)c21 (single isomer, unassigned) [Example 308]
32 | 6.96 | 6.29 | Cc1ccc(Cl)cc1C(C)n1ncc2nc(-n3cc(C(=O)O)cn3)nc(O)c21 (single isomer, unassigned) [Example 312]
33 | 7.17 | 6.11 | Cc1ccc(Cl)cc1C(C)n1ncc2nc(-n3cc(C(=O)O)cn3)nc(O)c21 (stereo not drawn) [Example 311]
34 | 7.66 | 6.33 | Cc1cc(C(C)n2ncc3nc(-n4cc(C(=O)O)cn4)nc(O)c32)ccc1Cl (single isomer, unassigned) [Example 294]
35 | 7.21 | 6.10 | Cc1ccc(F)c(C(C)n2ncc3nc(-n4cc(C(=O)O)cn4)nc(O)c32)c1 (single isomer, unassigned) [Example 314]
36 | 7.92 | 6.59 | C[C@@H](c1ccc(Cl)c(F)c1)n1ncc2nc(-n3cc(C(=O)O)cn3)nc(O)c21 [Example 271]
37 | 7.70 | 6.37 | COc1cccc(OCCCn2ncc3nc(-n4cc(C(=O)O)cn4)nc(O)c32)c1 [Example 186]
38 | 7.21 | 5.72 | Cc1nn([C@@H](C)c2ccc(F)cc2)c2c(O)nc(-n3cc(C(=O)O)cn3)nc12 [Example 448]
39 | 7.00 | 6.05 | C[C@H](c1cc(Cl)cc(C(F)(F)F)c1)n1ncc2nc(-n3cc(C(=O)O)cn3)nc(O)c21 [Example 268]
40 | 6.96 | 6.24 | C[C@H](C1CCC(C)(C)CC1)n1ncc2nc(-n3cc(C(=O)O)cn3)nc(O)c21 [Example 383]

Row | pIC50 (human HIF-PHD2) | pIC50 (human HIF-PHD3) | SMILES
41 | 7.10 | 6.01 | C[C@@H](c1cc(C(F)(F)F)cc(C(F)(F)F)c1)n1ncc2nc(-n3cc(C(=O)O)cn3)nc(O)c21 [Example 272]
42 | 7.42 | 6.38 | C[C@@H](c1cccc(C(F)(F)F)c1)n1ncc2nc(-n3cc(C(=O)O)cn3)nc(O)c21 [Example 258]
43 | 7.24 | 5.89 | CC(C)C(c1cccc(C(F)(F)F)c1)n1ncc2nc(-n3cc(C(=O)O)cn3)nc(O)c21 (single isomer, unassigned) [Example 363]
44 | 6.92 | 6.38 | Cc1ccc([C@H](C)n2ncc3nc(-n4cc(C(=O)O)cn4)nc(O)c32)cc1C(F)(F)F [Example 278]
45 | 7.21 | 6.07 | C[C@H](c1ccc(C(F)(F)F)c(F)c1)n1ncc2nc(-n3cc(C(=O)O)cn3)nc(O)c21 [Example 280]
46 | 8.00 | 6.70 | Cc1ccc2cc(Cn3ncc4nc(-n5cc(C(=O)O)cn5)nc(O)c43)ccc2c1 [Example 33]
47 | 7.44 | 6.32 | CCC(c1cccc(C(F)(F)F)c1)n1ncc2nc(-n3cc(C(=O)O)cn3)nc(O)c21 (single isomer, unassigned) [Example 342]
48 | 7.04 | 6.28 | C[C@H](c1cc(F)cc(C(F)(F)F)c1)n1ncc2nc(-n3cc(C(=O)O)cn3)nc(O)c21 [Example 273]
49 | 7.74 | 6.32 | CC(c1cc(Cl)c(Cl)s1)n1ncc2nc(-n3cc(C(=O)O)cn3)nc(O)c21 (single isomer, unassigned) [Example 320]
50 | 7.19 | 6.15 | Cc1ccc(C(C)n2ncc3nc(-n4cc(C(=O)O)cn4)nc(O)c32)cc1F (stereo not drawn) [Example 295]
51 | 7.60 | 6.28 | CC[C@@H](c1ccc(F)c(C)c1)n1ncc2nc(-n3cc(C(=O)O)cn3)nc(O)c21 [Example 344]
52 | 6.70 | 6.06 | C[C@@H](c1ccccc1Cl)n1ncc2nc(-n3cc(C(=O)O)cn3)nc(O)c21 [Example 257]
53 | 7.32 | 6.02 | COc1ccc([C@H](C)n2ncc3nc(-n4cc(C(=O)O)cn4)nc(O)c32)cc1 [Example 260]
54 | 7.46 | 6.40 | Cc1ccc(C(C2CC2)n2ncc3nc(-n4cc(C(=O)O)cn4)nc(O)c32)cc1 (single isomer, unassigned) [Example 369]
55 | 6.82 | 5.85 | CCc1nn(CC2CCCCC2)c2c(O)nc(-n3cc(C(=O)O)cn3)nc12 [Example 232]
56 | 7.26 | 6.33 | C[C@@H](c1ccc(F)c(F)c1)n1ncc2nc(-n3cc(C(=O)O)cn3)nc(O)c21 [Example 251]
57 | 7.39 | 6.28 | CC(C)C[C@H](C)n1ncc2nc(-n3cc(C(=O)O)cn3)nc(O)c21 [Example 496]
58 | 8.00 | 6.48 | O=C(O)c1cnn(-c2nc(O)c3c(cnn3C3CCN(c4ccc(C(F)(F)F)cc4)CC3)n2)c1 [Example 436]
59 | 6.74 | 6.32 | C[C@@H](c1cc(C(F)(F)F)ccc1F)n1ncc2nc(-n3cc(C(=O)O)cn3)nc(O)c21 [Example 288]
60 | 7.19 | 6.37 | O=C(O)c1cnn(-c2nc(O)c3c(cnn3C3Cc4ccccc4C3)n2)c1 [Example 395]
